Among the data in article PMC6572294, “Repurposing of FDA-Approved NSAIDs for DPP-4 Inhibition as an Alternative for Diabetes Mellitus Treatment: Computational and in Vitro Study” (Pharmaceutics, 2019) are IC50 values, retold here.

Broadly, the IC50 is the midpoint of a concentration-inhibition curve.

The target in this assay is T1, human dipeptidyl peptidase-4 (DPP-4) (Homo sapiens, UniProt P27487).
T1 construct: gene DPP4
The experiment in a line: fluorogenic Gly-Pro cleavage assay, human DPP-4 inhibitor screening kit (Sigma-Aldrich). The assay is classed as biochemical.

T1 sequence (P27487 39-766): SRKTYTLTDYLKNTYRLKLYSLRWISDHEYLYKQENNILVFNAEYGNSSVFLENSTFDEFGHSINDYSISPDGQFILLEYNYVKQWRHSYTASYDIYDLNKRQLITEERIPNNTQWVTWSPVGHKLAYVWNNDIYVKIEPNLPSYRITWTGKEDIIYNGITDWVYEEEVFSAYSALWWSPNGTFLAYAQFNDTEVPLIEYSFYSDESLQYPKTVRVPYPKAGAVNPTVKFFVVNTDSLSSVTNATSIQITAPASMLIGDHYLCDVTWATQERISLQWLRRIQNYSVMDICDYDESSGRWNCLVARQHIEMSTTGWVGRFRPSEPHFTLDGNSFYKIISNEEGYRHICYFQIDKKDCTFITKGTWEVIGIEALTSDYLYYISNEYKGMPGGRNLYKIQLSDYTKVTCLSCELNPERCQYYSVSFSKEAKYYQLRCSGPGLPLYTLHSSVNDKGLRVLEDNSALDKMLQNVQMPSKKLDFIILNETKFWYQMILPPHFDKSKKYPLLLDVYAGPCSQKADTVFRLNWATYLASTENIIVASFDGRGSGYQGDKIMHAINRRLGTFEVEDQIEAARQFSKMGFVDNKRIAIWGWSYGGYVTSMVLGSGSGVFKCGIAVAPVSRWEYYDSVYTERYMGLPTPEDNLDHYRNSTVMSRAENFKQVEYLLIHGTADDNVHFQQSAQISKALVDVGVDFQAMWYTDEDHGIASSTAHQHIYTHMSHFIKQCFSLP

Take `CN1C(C(=O)Nc2ccccn2)=C(O)c2ccccc2S1(=O)=O` [piroxicam]: the IC50 amounted to 9.9 µM.
